Results taken from the NIST ThermoML archive (doi:10.1021/je100757w).
Values joined by “and” are separate entries in the source; they are usually repeats but may differ in a detail not shown here. Equal entries are not always repeated.

Test: xn = mol fraction of the nth substance listed
Conditions: for surface tension liquid-gas: Ring tensiometer; for mass density: 101.3 kPa, Liquid

COCCOCCOCCOC [2,5,8,11-tetraoxadodecane] + O
Conditions	mass density [kg/m3]	surface tension liquid-gas
298.15 K, x1 = 0.0012	–	53.35 mN/m
298.15 K, x1 = 0.0024	–	51.27 mN/m
298.15 K, x1 = 0.0029	–	49.07 mN/m
298.15 K, x1 = 0.0036	–	48.59 mN/m
298.15 K, x1 = 0.0043	–	47.6 mN/m
298.15 K, x1 = 0.0173	1006.22	–
298.15 K, x1 = 0.0206	–	40.6 mN/m
298.15 K, x1 = 0.0375	–	38.88 mN/m
298.15 K, x1 = 0.0695	–	36.2 mN/m
298.15 K, x1 = 0.0905	–	33.99 mN/m
298.15 K, x1 = 0.0914	1019.65	–
298.15 K, x1 = 0.1223	–	33.06 mN/m
298.15 K, x1 = 0.163	–	32.87 mN/m
298.15 K, x1 = 0.1739	1017.24	–
298.15 K, x1 = 0.2731	1009.97	–
298.15 K, x1 = 0.2911	–	32.23 mN/m
298.15 K, x1 = 0.3468	1004.7	–
298.15 K, x1 = 0.3517	–	31.66 mN/m
298.15 K, x1 = 0.4515	998.25	–
298.15 K, x1 = 0.4658	–	31.16 mN/m
298.15 K, x1 = 0.5727	992.4	–
298.15 K, x1 = 0.583	–	30.5 mN/m
298.15 K, x1 = 0.6451	989.7	–
298.15 K, x1 = 0.659	–	30.09 mN/m
298.15 K, x1 = 0.7279	–	29.54 mN/m
298.15 K, x1 = 0.7766	985.98	–
298.15 K, x1 = 0.821	–	29.05 mN/m
298.15 K, x1 = 0.8679	984.02	–
298.15 K, x1 = 0.8823	–	28.52 mN/m
298.15 K, x1 = 0.8977	983.45	–
298.15 K, x1 = 0.9461	–	28.04 mN/m
298.15 K, x1 = 0.9699	981.95	–
298.15 K, x1 = 1	981.23	27.56 mN/m
308.15 K, x1 = 0.0009	–	53.01 mN/m
308.15 K, x1 = 0.0017	–	50.04 mN/m
308.15 K, x1 = 0.0026	–	47.96 mN/m
308.15 K, x1 = 0.0039	–	45.41 mN/m
308.15 K, x1 = 0.0109	–	41.72 mN/m
308.15 K, x1 = 0.0173	1004.32	–
308.15 K, x1 = 0.0218	–	40.14 mN/m
308.15 K, x1 = 0.0353	–	38.28 mN/m
308.15 K, x1 = 0.0882	–	36.04 mN/m
308.15 K, x1 = 0.0914	1016.26	–
308.15 K, x1 = 0.1214	–	34.06 mN/m
308.15 K, x1 = 0.1739	1010.56	–
308.15 K, x1 = 0.1767	–	33.08 mN/m
308.15 K, x1 = 0.2497	–	32.48 mN/m and 31.82 mN/m
308.15 K, x1 = 0.2731	1001.13	–
308.15 K, x1 = 0.34	–	31.44 mN/m
308.15 K, x1 = 0.3468	995.27	–
308.15 K, x1 = 0.4141	–	30.89 mN/m
308.15 K, x1 = 0.4515	988.66	–
308.15 K, x1 = 0.5272	–	30.74 mN/m
308.15 K, x1 = 0.5727	982.92	–
308.15 K, x1 = 0.5837	–	30.15 mN/m
308.15 K, x1 = 0.6451	980.17	–
308.15 K, x1 = 0.7176	–	29.76 mN/m
308.15 K, x1 = 0.7766	976.39	–
308.15 K, x1 = 0.8234	–	29.38 mN/m
308.15 K, x1 = 0.8679	974.51	–
308.15 K, x1 = 0.8977	973.95	–
308.15 K, x1 = 0.9458	–	28.74 mN/m
308.15 K, x1 = 0.9699	972.46	–
308.15 K, x1 = 1	971.71	28.48 mN/m
318.15 K, x1 = 0.0014	–	51.81 mN/m
318.15 K, x1 = 0.0021	–	47.47 mN/m
318.15 K, x1 = 0.0028	–	46.1 mN/m
318.15 K, x1 = 0.0039	–	44.63 mN/m
318.15 K, x1 = 0.01	–	41.37 mN/m
318.15 K, x1 = 0.0173	998.53	–
318.15 K, x1 = 0.0212	–	39.06 mN/m
318.15 K, x1 = 0.034	–	37.85 mN/m
318.15 K, x1 = 0.0543	–	35.26 mN/m
318.15 K, x1 = 0.0791	–	32.67 mN/m
318.15 K, x1 = 0.0849	–	32.5 mN/m
318.15 K, x1 = 0.0914	1007.41	–
318.15 K, x1 = 0.0917	–	32.42 mN/m
318.15 K, x1 = 0.122	–	32.27 mN/m
318.15 K, x1 = 0.1739	1001.45	–
318.15 K, x1 = 0.1848	–	32.14 mN/m
318.15 K, x1 = 0.2728	–	31.26 mN/m
318.15 K, x1 = 0.2731	992.1	–
318.15 K, x1 = 0.3289	–	31.05 mN/m
318.15 K, x1 = 0.3468	986.06	–
318.15 K, x1 = 0.3776	–	30.83 mN/m
318.15 K, x1 = 0.4515	979.25	–
318.15 K, x1 = 0.4688	–	30.3 mN/m
318.15 K, x1 = 0.5727	973.34	–
318.15 K, x1 = 0.6451	970.59	–
318.15 K, x1 = 0.6611	–	29.59 mN/m
318.15 K, x1 = 0.7234	–	29.4 mN/m
318.15 K, x1 = 0.7766	966.82	–
318.15 K, x1 = 0.8102	–	28.99 mN/m
318.15 K, x1 = 0.8562	–	28.68 mN/m
318.15 K, x1 = 0.8679	964.92	–
318.15 K, x1 = 0.8915	–	28.3 mN/m
318.15 K, x1 = 0.8977	964.34	–
318.15 K, x1 = 0.9699	962.91	–
318.15 K, x1 = 1	962.19	27.83 mN/m
